Measured values from US9863937B2, “Fluorescent molecular rotors” (Agency for Science, Technology and Research, priority 2012, dated 2018).
Entries after “also recorded” stand apart in the source; their conditions may differ.

Tests used:
[1] = system: p53 binding sequence duplex DNA; test: Rotor fluorescence with p53 binding sequence duplex DNA (intercalation); conditions: FIG. 7
Experimental: For the first set with DNA only, 1×PBS buffer and p53 6× binding buffer were first added to the wells. Subsequently, rotor was added. Lastly, DNA was added. The combined solutions were mixed in each well and allowed to incubate in the dark at room temperature for, half an hour before data on fluorescence intensity was gathered.
(§1) Measurements were taken using Greiner 384 black flat-clear-bottom for 18 uL mixtures, Corning 96 flat-black half-area for 80 uL and 100 uL mixtures, and Tecan Infinite M-1000 Spectrophotometer.

[2] = biological target: streptavidin (Streptomyces avidinii, UniProt P22629); test: Fluorescence of rotor-biotin conjugate on addition of streptavidin; assay type: binding
Experimental: FIG. 4a depicts the emission spectra of a CCVJ molecular rotor bound to biotin with Streptavidin. […] 40 μM of rotor-biotin conjugate was incubated for 15 min with 50 μg of streptavidin. Fluorescence emission spectrum was measured using an excitation wavelength (λex) of 433 nm.

[3] = biological target: p53 protein binding to DNA (Homo sapiens, UniProt P04637); test: Fluorescence change of DNA-bound rotor on addition of p53 protein
Experimental: For the third set with DNA and p53, 1×PBS buffer and p53 6× binding buffer were first added to the wells. Subsequently, rotor was added and DNA was added. The combined solutions were mixed in each well and allowed to incubate in the dark at room temperature for half an hour before p53 was added. The combined solutions were then allowed to incubate in the dark at room temperature for another half an hour before data on fluorescence intensity was gathered.
6× binding buffer consists: 150 mM sodium phosphate buffer, 600 uM KCl, 24 mM DTT.
as §1

[4] = biological target: MDM2 (Homo sapiens, UniProt Q00987); conditions: unconjugated peptide, Table 9; ITC; read-out: Previously reported Kd value; cited from earlier work
[5] = system: plasmid DNA; test: Rotor fluorescence with plasmid DNA; assay type: binding; conditions: 100 uM rotor, 5 ug plasmid DNA
Experimental: 100 uM of Sybr green, Pyrene or CCVJ rotors were each added to either 5 ug plasmid DNA, 5 ug DNA with 500 mM NaOH, or PBS buffer only. Resulting fluorescence for each reaction mixture were then compared across the respective filters (Sybr 497/520, Pyrene 376/530, Julolidine 433/505).

p53 protein binding to DNA, sequence (P04637 whole entry): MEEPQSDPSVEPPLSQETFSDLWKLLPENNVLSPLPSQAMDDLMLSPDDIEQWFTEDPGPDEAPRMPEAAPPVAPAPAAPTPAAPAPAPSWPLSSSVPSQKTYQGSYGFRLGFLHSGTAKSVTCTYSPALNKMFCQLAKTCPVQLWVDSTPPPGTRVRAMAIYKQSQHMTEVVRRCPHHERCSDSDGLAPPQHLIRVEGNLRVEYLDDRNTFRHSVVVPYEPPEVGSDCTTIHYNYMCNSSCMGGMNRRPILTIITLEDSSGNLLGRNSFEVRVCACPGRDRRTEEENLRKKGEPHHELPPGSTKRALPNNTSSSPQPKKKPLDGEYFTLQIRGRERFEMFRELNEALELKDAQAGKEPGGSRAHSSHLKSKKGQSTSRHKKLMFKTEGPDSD
MDM2, sequence (Q00987 whole entry): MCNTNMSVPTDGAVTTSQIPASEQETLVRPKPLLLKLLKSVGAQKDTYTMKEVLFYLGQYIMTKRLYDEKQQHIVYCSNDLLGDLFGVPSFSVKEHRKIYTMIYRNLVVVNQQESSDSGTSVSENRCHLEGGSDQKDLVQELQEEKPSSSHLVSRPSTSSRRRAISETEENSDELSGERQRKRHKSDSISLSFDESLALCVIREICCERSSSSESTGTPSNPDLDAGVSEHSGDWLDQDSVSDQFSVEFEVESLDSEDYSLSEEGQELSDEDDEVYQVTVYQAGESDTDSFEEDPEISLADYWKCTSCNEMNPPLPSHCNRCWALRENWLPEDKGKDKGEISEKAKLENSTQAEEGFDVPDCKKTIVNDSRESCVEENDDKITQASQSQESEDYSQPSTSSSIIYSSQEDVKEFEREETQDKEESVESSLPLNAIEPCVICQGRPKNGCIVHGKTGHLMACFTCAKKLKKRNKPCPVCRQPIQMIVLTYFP
streptavidin, sequence (P22629 25-183, species assumed): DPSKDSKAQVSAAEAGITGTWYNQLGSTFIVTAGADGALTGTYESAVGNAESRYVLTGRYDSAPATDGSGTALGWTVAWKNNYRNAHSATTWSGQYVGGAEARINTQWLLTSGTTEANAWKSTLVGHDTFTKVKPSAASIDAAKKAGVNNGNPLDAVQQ

C[n+]1ccc(/C=C/c2ccc(-n3c4ccc(/C=C/c5cc[n+](C)cc5)cc4c4cc(/C=C/c5cc[n+](C)cc5)ccc43)cc2)cc1 [carbazole-based (3-arm) rotor, 4,4′-((1E,1′E)-(9-(4-((E)-2-(1-methylpyridin-1-ium-4-yl)vinyl)phenyl)-9H-carbazole-3,6-diyl)bis(ethene-2,1-diyl))bis(1-methylpyridin-1-ium)]
Rotor:DNA ratio at saturation of fluorescence intensity [1]: 15 × rotor

N#C/C(=C\c1cc2c3c(c1)CCCN3CCC2)C(=O)OCCNC(=O)CCCCC1SCC2NC(=O)NC21 (centres unmarked) [biotin-rotor probe]
Fluorescence increase on addition of streptavidin ([2]; 40 μM conjugate, 50 μg streptavidin, 15 min): 2 fold

CN(C)c1ccc2cc3ccc(N(C)C)c(/C=C(\C#N)C(=O)O)c3nc2c1 [acridine-based rotor]
Rotor:DNA ratio at saturation of fluorescence intensity [1]: 0.5 × rotor
Fluorescence change when p53 is added to DNA-bound rotor [3]: decreased fluorescence signal; also recorded: fluorescence intensity dropped

MPRFMDYWEGLNK [JP2]
Kd [4]: 240 ± 53.8 nM

MPRFMDYWEGLSK [JP1]
Kd [4]: 18.8 ± 5.03 nM

C[n+]1ccc(/C=C/c2ccc3c(c2)c2cc(/C=C/c4cc[n+](C)cc4)ccc2n3-c2ccccc2)cc1 [carbazole-based (2-arm) rotor, 4,4′-((1E,1′E)-(9-phenyl-9H-carbazole-3,6-diyl)bis(ethene-2,1-diyl))bis(1-methylpyridin-1-ium)]
Rotor:DNA ratio at saturation of fluorescence intensity [1]: 15 × rotor
Fluorescence change when p53 is added to DNA-bound rotor [3]: turn-off effect

N#C/C(=C\c1ccc2ccc3cccc4ccc1c2c34)C(=O)O [pyrene-based molecular rotor]
Fluorescence change on binding to streptavidin ([2]; FIG. 4b): fluorescence increase

N#C/C(=C\c1cc2c3c(c1)CCCN3CCC2)C(=O)O [CCVJ, 9-(2-carboxy-2-cyanovinyl) julolidine]
Fluorescence signal with plasmid DNA [5]: weak signal

C[n+]1c(/C=C2/C=CN(CCCN)c3ccccc32)sc2ccccc21 [thiazole-based rotor]
Rotor:DNA ratio at saturation of fluorescence intensity [1]: 15 × rotor
